Data reported in US20250228239A1, “MOLECULES HAVING PESTICIDAL UTILITY, AND INTERMEDIATES, COMPOSITIONS, AND PROCESSES, RELATED THERETO” (priority 2024, published 2025).

Legend:
[1] = tested on: Beet Armyworm (Spodoptera exigua, LAPHEG); test: Bioassays on Beet Armyworm (BAW), 128-well diet tray assay; assay type: in vivo; conditions: Spodoptera exigua; Beet Armyworm, Table ABC / ABC-DP rating; read-out: BAW rating
Summary of the method: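 Mortality of second-instar larvae (1–5/well) on artificial diet treated with 50 μg/cm^2 compound, read after 5–7 days at 25° C.; values are means of eight wells.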

[2] = tested on: Cabbage Looper (Trichoplusia ni, TRIPNI); test: Bioassays on Cabbage Looper (CL), 128-well diet tray assay; assay type: in vivo; conditions: Trichoplusia ni; Cabbage Looper, Table ABC / ABC-DP rating; read-out: CL rating
Summary of the method: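 Diet tray, 2nd instar, 1–5 larvae/well; 50 μg/cm^2 compound surface-applied (acetone:water 90:10), dried; 8 wells/treatment; 25° C, 14:10 L:D, 5–7 d; % mortality, mean of 8 wells.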

SMILES | pest or weed control at 50 µg/cm2 [1] | pest or weed control at 50 µg/cm2 [2]
O=C(COC(F)(F)F)Nc1ccc(F)c(NC(=O)c2cc(NC(=O)[C@H]3[C@H](c4cc(Cl)c(Cl)c(Cl)c4)C3(Cl)Cl)cc(F)c2F)c1F [F1777, 5-((1R,3R)-2,2-Dichloro-3-(3,4,5-trichlorophenyl)cyclopropane-1-carboxamido)-N-(2,6-difluoro-3-(2-(trifluoromethoxy)acetamido)phenyl)-2,3-difluorobenzamide] | 50 to 100% | 50 to 100%
O=C(Nc1c(F)ccc(NC(=O)C2CCCO2)c1F)c1cc(NC(=O)[C@H]2[C@H](c3cc(Cl)c(Cl)c(Cl)c3)C2(Cl)Cl)cc(F)c1F (stereo partly drawn) [F1778, N-(3-(5-((1R,3R)-2,2-Dichloro-3-(3,4,5-trichlorophenyl)cyclopropane-1-carboxamido)-2,3-difluorobenzamido)-2,4-difluorophenyl)tetrahydrofuran-2-carboxamide] | 50 to 100% | 50 to 100%
O=C(Nc1c(F)ccc(NC(=O)C(F)(F)C(F)(F)C(F)(F)F)c1F)c1cc(NC(=O)[C@H]2[C@H](c3cc(Cl)c(Cl)c(Cl)c3)C2(Cl)Cl)cc(F)c1F [F1779, 5-((1R,3R)-2,2-Dichloro-3-(3,4,5-trichlorophenyl)cyclopropane-1-carboxamido)-N-(2,6-difluoro-3-(2,2,3,3,4,4,4-heptafluorobutanamido)phenyl)-2,3-difluorobenzamide] | 50 to 100% | 50 to 100%
O=C(Nc1ccc(F)c(NC(=O)C2(F)OC(F)(F)C(F)(F)C(F)(F)C2(F)F)c1F)c1cc(NC(=O)[C@H]2[C@H](c3ccc(F)c(C(F)(F)F)c3)C2(Cl)Cl)ccc1Cl (stereo partly drawn) [F1783, N-(3-(2-Chloro-5-((1R,3R)-2,2-dichloro-3-(4-fluoro-3-(trifluoromethyl)phenyl)cyclopropane-1-carboxamido)benzamido)-2,6-difluorophenyl)-2,3,3,4,4,5,5,6,6-nonafluorotetrahydro-2H-pyran-2-carboxamide] | 50 to 100% | 50 to 100%
C#CCNc1c(F)ccc(NC(=O)c2cc(NC(=O)[C@H]3[C@H](c4ccc(F)c(C(F)(F)F)c4)C3(Cl)Cl)ccc2Cl)c1F [F1807, 2-Chloro-5-((1R,3R)-2,2-dichloro-3-(4-fluoro-3-(trifluoromethyl)phenyl)cyclopropane-1-carboxamido)-N-(2,4-difluoro-3-(prop-2-yn-1-ylamino)phenyl)benzamide] | 50 to 100% | 50 to 100%
C#CCN(C(=O)COC(F)(F)F)c1c(F)ccc(NC(=O)c2cc(NC(=O)[C@H]3[C@H](c4ccc(F)c(C(F)(F)F)c4)C3(Cl)Cl)ccc2Cl)c1F [F1811, 2-Chloro-5-((1R,3R)-2,2-dichloro-3-(4-fluoro-3-(trifluoromethyl)phenyl)cyclopropane-1-carboxamido)-N-(2,4-difluoro-3-(N-(prop-2-yn-1-yl)-2-(trifluoromethoxy)acetamido)phenyl)benzamide] | 50 to 100% | 50 to 100%
O=C(Nc1c(F)ccc(NC(=O)c2cc(NC(=O)[C@H]3[C@H](c4ccc(F)c(C(F)(F)F)c4)C3(Cl)Cl)ccc2Cl)c1F)c1ccno1 [F1816, N-(3-(2-Chloro-5-((1R,3R)-2,2-dichloro-3-(4-fluoro-3-(trifluoromethyl)phenyl)cyclopropane-1-carboxamido)benzamido)-2,6-difluorophenyl)isoxazole-5-carboxamide] | 50 to 100% | 50 to 100%
O=C(Nc1c(F)ccc(NC(=O)c2cc(NC(=O)[C@H]3[C@H](c4ccc(F)c(C(F)(F)F)c4)C3(Cl)Cl)ccc2Cl)c1F)c1ccns1 [F1817, N-(3-(2-Chloro-5-((1R,3R)-2,2-dichloro-3-(4-fluoro-3-(trifluoromethyl)phenyl)cyclopropane-1-carboxamido)benzamido)-2,6-difluorophenyl)isothiazole-5-carboxamide] | 50 to 100% | 50 to 100%
O=C(Nc1c(F)ccc(NC(=O)c2cc(NC(=O)[C@H]3[C@H](c4ccc(F)c(C(F)(F)F)c4)C3(Cl)Cl)ccc2Cl)c1F)c1cnns1 [F1820, N-(3-(2-Chloro-5-((1R,3R)-2,2-dichloro-3-(4-fluoro-3-(trifluoromethyl)phenyl)cyclopropane-1-carboxamido)benzamido)-2,6-difluorophenyl)-1,2,3-thiadiazole-5-carboxamide] | 50 to 100% | 50 to 100%
O=C(Nc1ccc(F)c(NC(=O)C2(COC(F)(F)F)CC2)c1F)c1cc(NC(=O)[C@H]2[C@H](c3ccc(F)c(C(F)(F)F)c3)C2(Cl)Cl)ccc1Cl [F1821, 2-Chloro-5-((1R,3R)-2,2-dichloro-3-(4-fluoro-3-(trifluoromethyl)phenyl)cyclopropane-1-carboxamido)-N-(2,4-difluoro-3-(1-((trifluoromethoxy)methyl)cyclopropane-1-carboxamido)phenyl)benzamide] | 50 to 100% | 50 to 100%
O=C(Nc1c(F)ccc(NC(=O)c2cc(NC(=O)[C@H]3[C@H](c4ccc(F)c(C(F)(F)F)c4)C3(Cl)Cl)ccc2Cl)c1F)c1cc(C(F)(F)F)no1 [F1824, N-(3-(2-Chloro-5-((1R,3R)-2,2-dichloro-3-(4-fluoro-3-(trifluoromethyl)phenyl)cyclopropane-1-carboxamido)benzamido)-2,6-difluorophenyl)-3-(trifluoromethyl)isoxazole-5-carboxamide] | 50 to 100% | 50 to 100%
CC(OC(F)F)C(=O)Nc1c(F)ccc(NC(=O)c2cc(NC(=O)[C@H]3[C@H](c4ccc(F)c(C(F)(F)F)c4)C3(Cl)Cl)ccc2Cl)c1F (stereo partly drawn) [F1828, 2-Chloro-5-((1R,3R)-2,2-dichloro-3-(4-fluoro-3-(trifluoromethyl)phenyl)cyclopropane-1-carboxamido)-N-(3-(2-(difluoromethoxy)propanamido)-2,4-difluorophenyl)benzamide] | 50 to 100% | 50 to 100%
CC(C(=O)Nc1c(F)ccc(NC(=O)c2cc(NC(=O)[C@H]3[C@H](c4ccc(F)c(C(F)(F)F)c4)C3(Cl)Cl)ccc2Cl)c1F)C(F)(F)F (stereo partly drawn) [F1832, 2-Chloro-5-((1R,3R)-2,2-dichloro-3-(4-fluoro-3-(trifluoromethyl)phenyl)cyclopropane-1-carboxamido)-N-(2,4-difluoro-3-(3,3,3-trifluoro-2-methylpropanamido)phenyl)benzamide] | 50 to 100% | 50 to 100%
O=C(CC(C(F)(F)F)C(F)(F)F)Nc1c(F)ccc(NC(=O)c2cc(NC(=O)[C@H]3[C@H](c4ccc(F)c(C(F)(F)F)c4)C3(Cl)Cl)ccc2Cl)c1F [F1833, 2-Chloro-5-((1R,3R)-2,2-dichloro-3-(4-fluoro-3-(trifluoromethyl)phenyl)cyclopropane-1-carboxamido)-N-(2,4-difluoro-3-(4,4,4-trifluoro-3-(trifluoromethyl)butanamido)phenyl)benzamide] | 50 to 100% | 50 to 100%
O=C(Nc1ccc(F)c(NC(=O)C(F)(F)C(F)(F)OC(F)(F)F)c1F)c1cc(NC(=O)[C@H]2[C@H](c3ccc(F)c(C(F)(F)F)c3)C2(Cl)Cl)ccc1Cl [F1834, 2-Chloro-5-((1R,3R)-2,2-dichloro-3-(4-fluoro-3-(trifluoromethyl)phenyl)cyclopropane-1-carboxamido)-N-(2,4-difluoro-3-(2,2,3,3-tetrafluoro-3-(trifluoromethoxy)propanamido)phenyl)benzamide] | 50 to 100% | 50 to 100%
CC(CC(F)(F)F)C(=O)Nc1c(F)ccc(NC(=O)c2cc(NC(=O)[C@H]3[C@H](c4ccc(F)c(C(F)(F)F)c4)C3(Cl)Cl)ccc2Cl)c1F (stereo partly drawn) [F1835, 2-Chloro-5-((1R,3R)-2,2-dichloro-3-(4-fluoro-3-(trifluoromethyl)phenyl)cyclopropane-1-carboxamido)-N-(2,4-difluoro-3-(4,4,4-trifluoro-2-methylbutanamido)phenyl)benzamide] | 50 to 100% | 50 to 100%
O=C(Nc1ccc(F)c(NC(=O)C2CCOC2C(F)(F)F)c1F)c1cc(NC(=O)[C@H]2[C@H](c3ccc(F)c(C(F)(F)F)c3)C2(Cl)Cl)ccc1Cl (stereo partly drawn) [F1837, N-(3-(2-Chloro-5-((1R,3R)-2,2-dichloro-3-(4-fluoro-3-(trifluoromethyl)phenyl)cyclopropane-1-carboxamido)benzamido)-2,6-difluorophenyl)-2-(trifluoromethyl)tetrahydrofuran-3-carboxamide] | 50 to 100% | 50 to 100%
CCCNc1c(F)ccc(NC(=O)c2cc(NC(=O)[C@H]3[C@H](c4ccc(F)c(C(F)(F)F)c4)C3(Cl)Cl)ccc2Cl)c1F [F1838, 2-Chloro-5-((1R,3R)-2,2-dichloro-3-(4-fluoro-3-(trifluoromethyl)phenyl)cyclopropane-1-carboxamido)-N-(2,4-difluoro-3-(propylamino)phenyl)benzamide] | 50 to 100% | 50 to 100%
O=C(Nc1ccc(F)c(NC(=O)C(F)(F)C(F)C(F)(F)F)c1F)c1cc(NC(=O)[C@H]2[C@H](c3ccc(F)c(C(F)(F)F)c3)C2(Cl)Cl)ccc1Cl (stereo partly drawn) [F1839, 2-Chloro-5-((1R,3R)-2,2-dichloro-3-(4-fluoro-3-(trifluoromethyl)phenyl)cyclopropane-1-carboxamido)-N-(2,4-difluoro-3-(2,2,3,4,4,4-hexafluorobutanamido)phenyl)benzamide] | 50 to 100% | 50 to 100%
